Test results reported in US20050249674A1, “Aerosol composition” (University College Cardiff Consultants Limited, priority 1998, published 2005).

Assay: visual assessment of suspension: ease of dispersion on hand held shaking, extent of aggregation, suspension quality
Type: physicochemical
Settings: in HFA-134a or HFA-227
Method: Each suspension was assessed visually for its ease of dispersion on hand held shaking, its extent of aggregation and the quality of the suspension.
Ease of dispersion was scored on a scale of good (g), medium (m) and poor (p).
The extent of aggregation was scored on a scale of low, medium and high. Additionally the type of aggregation, if present, was recorded.
The quality of the suspension was scored on a scale of poor (p), poor-fair (p/f), fair (f), fair-good (f/g) and good (g).
The suspension properties measured by visual inspection were ease of dispersion, extent of aggregation and suspension quality and were scored as for Examples A to Q.
The resulting suspensions were assessed visually for ease of dispersion, suspension quality and extent of aggregation and scored as above, as set out under Examples A to R. The results are given in Table IV below.
The suspensions so formed were assessed visually for ease of dispersion and suspension quality and each assessment was scored on a scale of poor (p), poor-fair (p/f), fair (f), fair-good (f/g), good (g).
The extent of aggregation of each suspension was also assessed visually and in each example was rated as low.

Row | tendency to cream or sediment in the propellant | SMILES
1 | tendency to sediment | OC[C@H]1OC(O)[C@H](O)[C@@H](O)[C@@H]1O (stereo partly drawn) [Glucose, d-glucose anhydrous]
2 | tendency to cream | CC(C)C[C@H](N)C(=O)O [Leucine, L-leucine]
